Data on 1 substance can be found in patent publication US7470669B2, “Isolated polypeptide comprising a leptin fragment” (Serono Genetics Institute, S.A., priority 1999, dated 2008).

Data set [1] deals with db^Pas/db^Pas mice. The data set is described as follows: Postprandial plasma TG response after high-fat test meal in db^Pas/db^Pas mice. Type of data set: in vivo, mouse. On the procedure:
FIGS. 1A and 1B show the effect of leptin on postprandial plasma TG response in db/db and db^Pas/db^Pas mice. Overnight-fasted db/db (A), db^Pas/db^Pas (B) mice were gavage-fed a high-fat test meal and immediately injected intravenously (db/db) or intraperitoneally (db^Pas/db^Pas) with saline (open symbols) or 50 μg mouse recombinant leptin (closed symbols). At the indicated times, blood was collected from the tail (A) or orbital (B) vein, plasma was separated by centrifugation, and plasma TG concentrations were determined using an enzymatic kit. Each point represents the mean±SEM (db/db: saline, n=4, leptin, n=3; db^Pas/db^Pas: saline, n=6, leptin, n=7). The average plasma lipid response in 10 control C57BL6 mice is shown as a dotted line in both A and B. In a separate experiment, shown as an inset for each strain of mice, overnight fasted db/db (●) or db^Pas/db^Pas (▪) mice were gavage-fed the test meal and immediately injected intravenously with increasing concentrations of leptin. The plasma lipid response was then measured as in A and B. The area under the response curve (AUC) was then calculated using a triangulation method on Microsoft Excel between 0 and 4 hr (mg TG·h/mL). Values are presented as % of control value (test meal alone obtained in A or B). Each point represents the mean of at least 3 mice.
FIGS. 7A and 7B show a comparison of the effect of human and mouse leptin on LSR activity in rat hepatocytes and on postprandial increase in plasma TG in db^Pas/db^Pas mice. For FIG. 7A, primary cultures of rat hepatocytes were incubated 30 min at 37° C. without (open bar) or with 10 ng/mL recombinant human (solid bar) or mouse (hatched bar) leptin in Buffer A. Oleate (0.5 mM) and ^125I-LDL (20 μg/mL) were added and the cells were incubated 2 h at 37° C. The media were removed and were analyzed for TCA-soluble degradation products. The mean of duplicate determinations is shown. For FIG. 7B, db^Pas/db^Pas mice were given a test meal as previously described, followed immediately by injection i.p. of saline (open bar, n=4), human leptin (1 μg/animal; solid bar, n=3) or mouse leptin (0.25 μg/animal; hatched bar; n=3). The data represent the difference in TG concentrations measured at t=0 and the average of the concentrations at 3 and 4 hours. Results are shown as mean±SEM.
Mice that were fasted for 2-3 hours were gavage-fed 300 μL of a test meal consisting of 60% fat (37% saturated, 27% mono-, and 36% polyunsaturated fatty acids), 20% protein and 20% carbohydrate, and providing 56 kcal of energy/kg (1.5 g butter, 1.5 g sunflower oil, 2.5 g nonfat dry milk, 2.5 g sucrose and 3 ml water). […] TG concentrations were determined using a commercially available enzymatic kit with controls included in each assay (Precinorm L, Roche-Boehringer Mannheim; Lyotrol N, BioMérieux).

Data set [2] is described as follows: Plasma leptin concentration after subcutaneous leptin injection in ob/ob mice. Type of data set: in vivo, mouse. The settings on record: 50 ng s.c., at 2 h. From the text:
Na ^125I was purchased from Amersham-Pharmacia (Piscataway, N.J.; Les Ulis, France). Oleic acid, bovine serum albumin (A2153) (BSA), were obtained from Sigma (St. Louis, Mo.; St. Quentin Fallavier, France). Sodium heparin was purchased from Choay laboratories (Gentilly, France). Fugene was purchased from Roche Boehringer Mannheim (Indianapolis, Ind.), and Superfect from Qiagen (Valencia, Calif.). Zeocin was obtained from Invitrogen (Carlsbad, Calif.). Suramin was a gift from Bayer Pharmaceuticals (Puteaux, France). Enzymatic kits for the determination of TG and FFA were obtained from Roche-Boehringer Mannheim (Meylan, France) and WAKO (Richmond, Va.; Unipath, Dardilly, France), respectively. Dulbecco's modified Eagle's medium (DMEM), trypsin, penicillin-streptomycin, glutamine, and fetal bovine serum (FBS) were purchased from Life Technologies, Inc (Grand Island, N.Y.; Eragny, France). RIA kits for plasma leptin measurements were obtained from Linco (St. Louis, Mo.). […]
This injection caused a transient increase in plasma leptin concentrations up to 3.25±0.03 ng/mL at 2 h; baseline values were recorded 4 h after injection. […]

Turning to “leptin: plasma protein of 16 kDa produced by adipocytes; recombinant human or mouse leptin, species depends on the experiment”, the “area under the TG curve” value in data set [1] (250 ng leptin per animal, AUC 0-4 h) is “significant reduction”. Besides, the “decrease of the area under the postprandial TG curve” value in data set [1] (500 ng leptin per animal (maximum effect)) is reported as more than 65%. In addition, the “amplitude of the triglyceride response” value in data set [1] (single bolus 50 μg mouse recombinant leptin i.p. at time of test meal) is “decreased the amplitude of the triglyceride response”. Also, the plasma leptin concentrations in data set [2] amounted to 3.25 ± 0.03 ng/mL.
